From paper PMC7733455, “A novel multistage antiplasmodial inhibitor targeting Plasmodium falciparum histone deacetylase 1” (Cell Discovery, 2020)
Where two headings read alike, the source gives them in different places.

How the values were obtained:
P. falciparum 3D7 [1] = experiment: Ring-stage survival assay (RSA), sensitive strain 3D7; type: cell-based, Plasmodium falciparum; details: 700 nM
P. falciparum C2A = experiment: 3-day SYBR Green I GIA, strain C2A; type: cell-based; details: Plasmodium falciparum, read-out: Resistant isolates EC50, C2A
Method: (§1) A 3-day SYBR Green I inhibition EC50 assay was performed as described previously. Briefly, highly synchronized ring-stage parasites by 5% sorbitol (1% parasitemia and 2% hematocrit) were incubated in a 96-well plate with compounds in a total volume of 200 μL. […] The parasites were cultured for 72 h before SYBR Green I staining as described above. The EC50 was calculated by GraphPad Prism. DHA was used as a positive control, and the final concentration of DMSO was 1%.

[2] = test system: P. falciparum isolate 6218; experiment: 3-day SYBR Green I GIA, field isolate 6218; type: cell-based; details: Plasmodium falciparum; artemisinin- and piperaquine-resistant isolate; read-out: Resistant isolates EC50, 6218
Method: as §1

[3] = test system: P. falciparum clinical isolates 6218 and 6320; experiment: Ring-stage survival assay (RSA), isolates 6218 and 6320; type: cell-based, Plasmodium falciparum; details: 700 nM, 6 h exposure, synchronized rings of isolates 6218 and 6320
Method: An RSA was performed as described previously[65] to evaluate the activity of JX21108 against the artemisinin- and piperaquine-resistant P. falciparum clinical isolates 6218 and 6320[43]. Briefly, parasites were highly synchronized at 0–3 hpi by a 60%/40%-Percoll gradient[66] followed by 5% D-sorbitol[67] treatment after 3 h. The parasite suspension (0.5%–1% parasitemia, 2% hematocrit) was incubated with compounds at 700 nM in a total volume of 2 mL in a 48-well plate for 6 h. After that, the culture mixture was washed three times with 15 mL of CM before another 66 h of cultivation with CM. A Giemsa-stained blood smear was made after cultivation. Parasitemia was counted from at least 10,000 RBCs by microscopy. The survival rate was calculated as the percentage of that in DMSO control. DHA at a concentration of 700 nM served as a positive control.

[4] = test system: P. falciparum isolate 6320; experiment: 3-day SYBR Green I GIA, field isolate 6320; type: cell-based; details: Plasmodium falciparum; artemisinin- and piperaquine-resistant isolate; read-out: Resistant isolates EC50, 6320
Method: as §1

P. falciparum CP286 = experiment: 3-day SYBR Green I GIA, strain CP286; type: cell-based; details: Plasmodium falciparum; CP286 resistant to pyrimethamine and chloroquine; read-out: Resistant isolates EC50, CP286
Method: as §1

P. falciparum GB4 = experiment: 3-day SYBR Green I GIA, strain GB4; type: cell-based; details: Plasmodium falciparum; GB4 resistant to chloroquine; read-out: Resistant isolates EC50, GB4
Method: as §1

HepG2 cells = experiment: In vitro cytotoxicity analysis (CellTiter-Glo), HepG2
Method: (§2) In all, 1% DMSO was used as a negative control. The inhibition of each drug was normalized to that of the DMSO control. EC50 was calculated by GraphPad Prism. Three independent assays with two technical replicates each time were conducted in this experiment.

[5] = as above; details: human, HepG2 cells
Method: as §2

P. falciparum 3D7 [6] = experiment: 3-day SYBR Green I growth inhibition assay (GIA), strain 3D7; type: cell-based, Plasmodium falciparum; details: Plasmodium falciparum, 3D7, 72 h, read-out: Antiplasmodial activity EC50, 3D7
Method: as §1

P. falciparum Dd2 = experiment: 3-day SYBR Green I GIA, multidrug-resistant strain Dd2; type: cell-based, Plasmodium falciparum
Method: as §1

293T cells = experiment: In vitro cytotoxicity analysis (CellTiter-Glo), 293T
Method: as §2

[7] = as above; details: human, 293T cells, Cytotoxicity EC50, 293T, 72 h, CellTiter-Glo
Method: as §2

P. yoelii = experiment: In vivo efficacy of the five HDAC inhibitor hits in rodent malaria model (Fig. S1c); set-up: species or system Plasmodium yoelii in BALB/c mice; details: i.p., three mice per group
Method: Fimepinostat Pinometostat
Sodium Phenylbutyrate 500 50
Givinostat hydrochloride monohydrate
Supplementary Fig. S1 Screening of epigenetic inhibitors against blood-stage P. […]
nM and 500 nM tested compounds compared to that with the DMSO control. b The EC50 values of five compounds against Pf3D7, HepG2 and 293T cells; SIa,EC 50 HepG2/ […]
of P. yoelii in BALB/c mice. Three mice were used in each group. Parasitemia was calculated from at least 5,000 red blood cells (RBCs) by microscopy . Blank, untreated group; PPQ, piperaquine phosphate. The administration route was intraperitoneal (i.p.). The data of a and b are from three independent biological replicates in […]
(also on this page, place not known: BET BromodominHDMHMT […] HDAC SI ±3.2 ±24 ±125 % Parasitemia microscopy. a) […]

[8] = test system: parasite histone H3 acetylation; experiment: Western blot of histone H3 acetylation in parasites; type: cell-based, Plasmodium falciparum; details: 4 h treatment of asynchronous 3D7; quisinostat/JX21108 5 and 20 nM, SAHA 500 nM
Method: Then the parasite samples were harvested and treated with 0.15% saponin to remove the RBC proteins and sonicated in 1% NP40 lysis buffer. After centrifugation at 12,000× g for 15 min, the supernatant was resuspended in a routine SDS loading buffer. Parasite proteins were separated by 10% SDS-PAGE and transferred onto PVDF membranes (Millipore). […] A2348) followed by a secondary antibody conjugated with HRP (Jackson Immuno Research Laboratories). The chemiluminescent HRP substrate Immobilon Western Kit (Millipore) was used for signal detection.

hSirt2 = target: T1, hSirt2 (Homo sapiens, UniProt Q8IXJ6); experiment: Human HDAC inhibition assay, hSirt2; type: biochemical; details: performed only once; read-out: Inhibitory Activity IC50, hSirt2
T1 construct: purchased BPS Bioscience 50013
Method: SAHA and suramin were used as positive controls. The tested compounds were dissolved into 20 mM stock in 100% DMSO. […] Ten microliters of trypsin and Ac-peptide substrate/Tris buffer solution were added to start the reaction, followed by a 1-h incubation at room temperature for HDACs 1–3 and 6. Ten microliters of Ac-peptide substrate/Tris buffer solution was added to start the reaction, followed by a 4-h incubation at room temperature and a further 2-h incubation with trypsin solution for HDAC8 and Sirt 2. […] This experiment was performed only once.

[9] = Pharmacokinetic assay in mice; type: in vivo, BALB/c mice; details: 5 mg/kg i.p.
Method: Five female BALB/c mice (6–8 weeks, 18–19 g) per group were purchased from JH Laboratory Animal Co., Ltd. All mice were raised at controlled temperature and humidity and had free access to food and water. Compounds were dissolved in 5% DMSO and diluted with 20% aqueous 2-hydroxypropyl-β-cyclodextrin solution to a stock concentration of 0.5 mg/mL. Each mouse was i.p. injected with the compound solution at a dose of 5 mg/kg. Blood samples collected by anticoagulant (K2EDTA)-containing tubes at 0.25, 0.5, 1, 2, 4, 8, and 24 h after injection were centrifuged at 2000× g at 4 °C for 5 min to obtain plasma. LC-MS/MS analysis of samples was carried out by an ACQUITY UPLC HSS T3 1.8-μm column. The mobile phase was a mixture of phase A (0.1% formic acid in water) and phase B (0.1% formic acid in acetonitrile), which ran in gradient mode at a flow rate of 0.6 mL/min at 60 °C. Mass spectra were obtained on an API6500 triple quadrupole equipped with an ESI source. Propranolol was used as an internal standard. The plasma concentrations of the compounds were analyzed, and the pharmacokinetic parameters were calculated via WinNonlin.

[10] = test system: asynchronous 3D7 parasites; experiment: Time- and dose-dependent parasite inhibition assay; type: cell-based, Plasmodium falciparum
Method: Asynchronous parasites (2% parasitemia, 4% hematocrit) were treated with the tested compounds at a concentration of 10, 30, 60, or 100 nM, respectively. At 3, 6, 12, and 24 h post treatment, parasitemia of each sample was detected by flow cytometry to investigate the time-dependent activity. Parasites from the same treatment were further washed to remove compounds, and parasitemia was diluted 1:40 by new RBCs into CM for an additional 4 days of culture. Parasitemia of each sample was detected by flow cytometry as described above to investigate the dose-dependent activity. DMSO was used as a blank control.

[11] = Liver microsome metabolism assay, mouse; type: in vitro ADME
Method: Liver microsomes (0.5 mg/mL) were purchased from Corning. Ketanserin was selected as a positive control. The tested compounds were first dissolved in DMSO to a concentration of 10 mM and then diluted to 0.5 mM with acetonitrile. Liver microsome buffer was used to dilute the compounds to a working concentration of 1.5 µM, 30 µL of which was mixed with 15 µL of 6 mM NADPH at 37 °C. At 0, 5, 15, 30, and 45 min after incubation, 135 µL of acetonitrile was added to quench the reaction. The mixture was shaken on a vortex mixer (IKA, MTS 2/4) for 10 min at 600 rpm/min and then centrifuged at 5594× g for 15 min (Thermo Multifuge×3R). The supernatant was diluted 1:1 into distilled water, and analyzed by LC-MS/MS.

[12] = 3-day SYBR Green I GIA, drug-sensitive strain 3D7
[13] = Plasmodium falciparum, 72 h, 3-day SYBR Green I GIA, multidrug-resistant strain Dd2, read-out: Antiplasmodial activity EC50, Dd2
[14] = female, BALB/c, mouse, plasma, ip

T1 sequence (Q8IXJ6 whole entry): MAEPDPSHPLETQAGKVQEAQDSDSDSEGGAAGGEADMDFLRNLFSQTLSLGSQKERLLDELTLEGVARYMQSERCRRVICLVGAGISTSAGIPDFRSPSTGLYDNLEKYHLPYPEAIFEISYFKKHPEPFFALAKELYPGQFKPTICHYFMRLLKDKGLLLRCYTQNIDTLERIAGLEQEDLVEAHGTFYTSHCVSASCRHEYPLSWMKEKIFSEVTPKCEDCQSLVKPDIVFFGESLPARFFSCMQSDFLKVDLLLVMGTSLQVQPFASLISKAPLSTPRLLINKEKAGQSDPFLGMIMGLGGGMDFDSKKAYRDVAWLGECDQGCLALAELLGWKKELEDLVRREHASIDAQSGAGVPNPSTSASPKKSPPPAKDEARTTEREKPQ

SMILES: C[C@H]1[C@@H](O)O[C@@H]2O[C@@]3(C)CC[C@H]4[C@H](C)CC[C@@H]1[C@@]24OO3 [DHA, dihydroartemisinin, reference compound]
- RSA effect on ring-stage parasites of 3D7 (P. falciparum 3D7 [1]): efficiently killed the ring-stage parasites
- EC50 (P. falciparum C2A): 3.7 ± 2.4 nM
- EC50 [2]: 5.5 ± 1.1 nM
- RSA survival rate [3]: ~8%
- EC50 [4]: 6.5 ± 1.4 nM
- EC50 (P. falciparum CP286): 5.6 ± 2.4 nM
- EC50 (P. falciparum GB4): 3.2 ± 1.2 nM

SMILES: Cl.Cn1cc(CN2CCC3(CCN(c4ncc(C(=O)NO)cn4)C3)C2)c2cc(Br)ccc21 (stereo not drawn) [JX21141]
- Selectivity index for HepG2 (EC50 HepG2/EC50 3D7) (HepG2 cells): 88
- EC50 at 72 h [5]: 294 ± 45 nM
- EC50 (P. falciparum 3D7 [6]; [12]): 3.3 ± 0.5 nM
- EC50 (P. falciparum Dd2; [13]): 1.736 ± 0.005 nM
- Selectivity index for 293T (EC50 293T/EC50 3D7) (293T cells): 189
- EC50 at 72 h [7]: 633 ± 209 nM

SMILES: COc1ccc2c(CN3CCC4(CCN(c5ncc(C(=O)NO)cn5)C4)C3)cn(C)c2c1.Cl (stereo not drawn) [JX21142]
- Selectivity index for HepG2 (EC50 HepG2/EC50 3D7) (HepG2 cells): 72
- EC50 at 72 h [5]: 975 ± 1 nM
- EC50 (P. falciparum 3D7 [6]; [12]): 13.6 ± 4.2 nM
- EC50 (P. falciparum Dd2; [13]): 3.4 ± 2.2 nM
- Selectivity index for 293T (EC50 293T/EC50 3D7) (293T cells): 90
- EC50 at 72 h [7]: 1230 ± 102 nM

SMILES: Cn1cc(CNCC2CCN(c3ncc(C(=O)NO)cn3)CC2)c2ccccc21 [Quisinostat, reference compound]
- EC50 (HepG2 cells; read-out: Cytotoxicity EC50, HepG2, 72 h, CellTiter-Glo): 42 ± 10 nM
- EC50 at 72 h [5]: 48 nM
- EC50 (P. falciparum 3D7 [6]): 5.2 ± 0.7 nM
- clearing of P. yoelii blood-stage infections (P. yoelii): remained effective in clearing P. yoelii blood-stage infections
- EC50 (P. falciparum Dd2; Plasmodium falciparum, DD2, 72 h, read-out: Antiplasmodial activity EC50, Dd2, 3-day SYBR Green I GIA, multidrug-resistant strain Dd2): 7.1 nM
- EC50 (P. falciparum Dd2; read-out: Antiplasmodial activity EC50, Dd2, 3-day SYBR Green I GIA, multidrug-resistant strain Dd2): 7.09 ± 0.01 nM
- pan-acetylation levels of parasite histone H3 [8]: greatly increased the pan-acetylation levels of parasite histone H3
- IC50 (hSirt2): > 10000 nM
- CL/F [9]: 462 mL/min/kg
- Cmax [9]: 88.7 ng/mL
- Tmax [9]: 4.98 min
- V/F [9]: 245 L/kg
- plasma concentration ([9]; during 8–12 h after administration): ~ 2.5 ng/mL
- AUC(0-inf) [9, 14]: 180 ng·h/mL
- AUC(0-t) [9, 14]: 157 ng·h/mL
- half-life [9, 14]: 368 min
- parasitemia measured 4 days after 6-h treatment ([10]; 6-h treatment, washed, 1:40 dilution, 4 days culture): substantial reduction in parasitemia
- asexual growth of 3D7 after 12- and 24-h treatments ([10]; 10-100 nM, parasitemia immediately after treatment): significantly inhibited the asexual growth of 3D7 parasites
- EC50 (293T cells; read-out: Cytotoxicity EC50, 293T, 72 h, CellTiter-Glo): 48 ± 1 nM
- EC50 at 72 h [7]: 42 nM
- T1/2 in liver microsomes [11]: 13.31 min
- half-life at 1 µM ([11]; mouse, liver microsomes, read-out: T1/2 in liver microsomes): 13.3 min

SMILES: O=C(CCCCCCC(=O)Nc1ccccc1)NO [SAHA]
- pan-acetylation levels of parasite histone H3 [8]: greatly increased the pan-acetylation levels of parasite histone H3
